According to ChEMBL document CHEMBL3301550, “MMV Mararia Box screening against P. falciparum asexual stage parasites under hypoxia and bicarbonate modified culture conditions”:

Legend:
Assay type in all cases: functional, organism-based
Details in all cases: 3D7
Plasmodium falciparum [1] = assay: MMV: 3H-Hyoxanthine uptake assay; RPMI 1640 (Invitrogen cat#11875-093) with Sodium Bicarbonate (NaHCO3) […].
Plasmodium falciparum [2] = assay: MMV: Modified 3H-Hyoxanthine uptake assay; RPMI 1640 (Invitrogen cat#23400-013) without Sodium Bicarbonate (NaHCO3).
Plasmodium falciparum [3] = assay: MMV: 3H-Hyoxanthine uptake assay; 5% O2, 5% CO2 in N2.
Plasmodium falciparum [4] = assay: MMV: Modified 3H-Hyoxanthine uptake assay; 1% O2, 5% CO2 in N2.

SMILES	IC50 (Plasmodium falciparum [1]) [nM]	IC50 (Plasmodium falciparum [2]) [nM]	IC50 (Plasmodium falciparum [3]) [nM]	IC50 (Plasmodium falciparum [4]) [nM]
CN1CCN(c2ccc(Nc3c4ccccc4nc4ccccc34)cc2)CC1	98	269	117	76
CN(C)CCCNc1c2ccccc2nc2ccccc12	190	594	360	59
CCN1CCCC1CNc1[nH]cnc2c3cc(Cl)ccc3nc1-2 (stereo unspecified)	> 1000	> 1000	> 1000	> 1000
COc1ccc(-c2c(C)nn3c(N)c(C#N)cnc23)cc1OC	330	457		
CSC1=NC(=Nc2c(C)cccc2C)C2(CCC(C(C)(C)C)CC2)N1c1ccc(Cl)cc1 (stereo unspecified)	> 1000	> 1000	> 1000	> 1000
Cc1cc(C)cc(Nc2cc(C)nc3nc(C(F)(F)F)nn23)c1	59	132	81	47
O=C(NCC(c1ccsc1)N1CCCCCC1)c1ccc(C(F)(F)F)cc1 (stereo unspecified)	425	1120		
Cc1ccc(-c2cc3c(SCC(=O)Nc4cc(C(F)(F)F)ccc4Cl)nccn3n2)cc1	> 500	> 500	> 500	> 500
CCN(CC)CCNc1ncnc2c1[nH]c1ccc(Cl)cc12	326	851	314	266
CCOC(=O)c1cnc2ccc(CC)cc2c1O	301	408	> 1000	> 1000
Cc1ccc(-c2cc3c(nn2)-c2ccccc2C3=O)cc1	> 500	> 500	> 500	> 500
CCN(CC)CCNc1ccnc2cc(Cl)ccc12	46	94	40	18
Cc1ccc(Nc2nc(-c3ccccn3)cs2)cc1	> 1000	> 1000	> 1000	> 1000
CCCCCC(=O)N1c2ccccc2N=C2CC(c3ccc(OC)c(OC)c3)CC(O)=C2C1c1ccc(C(F)(F)F)cc1 (stereo unspecified)	129	144		
Cc1cc(NCCN2CCCCC2)c2ccc3ccccc3c2n1	127	219	489	132
COc1ccc(-n2ccnc2SCC(=O)Nc2cc(C)ccc2C)c(OC)c1	> 1000	> 1000	793	431

SMILES	IC50 (Plasmodium falciparum [1]) [nM]	IC50 (Plasmodium falciparum [2]) [nM]	IC50 (Plasmodium falciparum [3]) [nM]	IC50 (Plasmodium falciparum [4]) [nM]
CCN1CCN(Cc2ccc(NC(=O)c3cc4ccc5cccnc5c4[nH]3)cc2)CC1	582	674	422	497
COc1ccc(-c2nc(NC(=O)CS(=O)(=O)c3ccc(F)cc3)sc2C)cc1	192	464		
O=C(O)C1Cc2c([nH]c3ccccc23)C(c2ccc(Cl)cc2Cl)N1 (stereo unspecified)	> 1000	> 1000	> 1000	> 1000
Cc1ccc(N2C(=O)C3C(C2=O)C2(c4ccccc4)C(=O)C3(c3ccccc3)C(c3ccccc3)=C2c2ccccc2)cc1 (stereo unspecified)	> 1000	> 1000	> 1000	> 1000
CCc1c(C)c(=N)c2ccccc2n1C	425	784	324	338
COc1cccc(NC(=O)[C@H](C(C)C)n2c(=O)[nH]c3ccccc3c2=O)c1	199	349	213	156
CCOC(=O)c1cn(CC)c2cc(N(C)CCc3ccc(OC)c(OC)c3)c(F)cc2c1=O			345	85
CCC(c1ccccc1)c1nn2c(-c3cccs3)nnc2s1 (stereo unspecified)	150	181	415	66
CCOc1cc2c(cc1OCC)C(c1cc(OC)c(O)cc1Cl)NCC2 (stereo unspecified)	746	982	374	568
CC1CN(C(=O)c2sc3ccccc3c2Cl)CC(C)O1 (stereo unspecified)	73	71	79	100
CN(C)c1ccc(C=Cc2nc(=O)c3ccccc3o2)cc1	366	295	> 500	> 500
COc1ccc(C2=C(c3ccc(OC)cc3)C3(c4ccccc4)C(=O)C2(c2ccccc2)C2C(=O)N(c4ccc(C)cc4)C(=O)C23)cc1 (stereo unspecified)	> 1000	> 1000	> 1000	> 1000
CCOC(=O)c1c(NC(=O)c2ccccc2)sc2c(O)c(CN(CC)CC)ccc12			> 1000	> 1000
CCOC(=O)C1=C(c2ccccc2)N=c2sc(=Cc3cc(C)n(-c4ccc(F)cc4)c3C)c(=O)n2C1c1cccc(OC)c1OC (stereo unspecified)	> 1000	> 1000	> 1000	> 1000
CCC1(C)CC(CCNCc2ccccc2O)(c2ccc(C)cc2)CCO1 (stereo unspecified)	266	277	540	236
COc1cccc(C=Cc2nc(=O)c3ccccc3o2)c1OC	> 500	> 500	> 500	> 500
